Reference: patent US9422293B2 (priority 2006, dated 2016)
Structures can show the parent of a compound that is named as a salt.

Biological target: rat TRPV1 (Rattus norvegicus (Rat), UniProt O35433)
Settings: read-out: Rat IC50

rat TRPV1, sequence (O35433 whole entry): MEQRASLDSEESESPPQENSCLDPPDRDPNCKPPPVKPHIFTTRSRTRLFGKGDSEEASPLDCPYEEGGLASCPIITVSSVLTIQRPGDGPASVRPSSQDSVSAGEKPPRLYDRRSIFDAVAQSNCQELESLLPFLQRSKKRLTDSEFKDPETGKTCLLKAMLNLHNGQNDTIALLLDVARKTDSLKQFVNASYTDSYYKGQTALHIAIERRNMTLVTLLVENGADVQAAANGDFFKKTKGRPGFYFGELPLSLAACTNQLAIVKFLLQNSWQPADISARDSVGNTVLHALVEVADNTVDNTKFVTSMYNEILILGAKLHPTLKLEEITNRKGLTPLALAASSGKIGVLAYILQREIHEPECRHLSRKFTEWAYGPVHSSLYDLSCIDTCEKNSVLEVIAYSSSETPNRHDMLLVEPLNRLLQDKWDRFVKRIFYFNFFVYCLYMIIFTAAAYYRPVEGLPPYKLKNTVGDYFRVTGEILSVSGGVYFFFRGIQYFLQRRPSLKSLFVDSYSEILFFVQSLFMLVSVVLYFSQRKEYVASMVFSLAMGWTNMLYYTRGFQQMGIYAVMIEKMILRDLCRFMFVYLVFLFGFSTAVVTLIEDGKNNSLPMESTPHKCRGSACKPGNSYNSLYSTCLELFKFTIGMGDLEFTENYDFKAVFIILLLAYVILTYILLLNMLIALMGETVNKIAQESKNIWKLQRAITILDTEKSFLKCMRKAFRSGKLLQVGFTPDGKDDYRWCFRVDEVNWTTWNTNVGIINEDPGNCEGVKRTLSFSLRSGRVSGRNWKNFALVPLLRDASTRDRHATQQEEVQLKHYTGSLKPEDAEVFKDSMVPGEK

Going from `CC(C)c1nc2c(c(Nc3ccc(C(C)(C)C)cc3)n1)CCN(c1ncc([N+](=O)[O-])cc1C(F)(F)F)CC2` [Example 290, N-[4-(1,1-Dimethylethyl)phenyl]-2-(1-methylethyl)-7-[5-nitro-3-(trifluoromethyl)pyridin-2-yl]-6,7,8,9-tetrahydro-5H-pyrimido[4,5-d]azepin-4-amine] to `CC(C)c1nc2c(c(Nc3ccc(C(F)(F)F)cc3)n1)CCN(c1ncc([N+](=O)[O-])cc1C(F)(F)F)CC2` [Example 291, 2-(1-Methylethyl)-7-[5-nitro-3-(trifluoromethyl)pyridin-2-yl]-N-[4-(trifluoromethyl)phenyl]-6,7,8,9-tetrahydro-5H-pyrimido[4,5-d]azepin-4-amine], the IC50 rises from 0.1 µM to 0.17 µM (1.7-fold).

First: N#Cc1cccnc1N1CCc2ncnc(Nc3ccc(C(F)(F)F)cc3)c2CC1 [Example 293, 2-(4-{[4-(Trifluoromethyl)phenyl]amino}-5,6,8,9-tetrahydro-7H-pyrimido[4,5-d]azepin-7-yl)pyridine-3-carbonitrile]
Second: Fc1cccnc1N1CCc2ncnc(Nc3ccc(C(F)(F)F)cc3)c2CC1 [Example 295, 7-(3-Fluoropyridin-2-yl)-N-[4-(trifluoromethyl)phenyl]-6,7,8,9-tetrahydro-5H-pyrimido[4,5-d]azepin-4-amine]
The IC50 of the first is 3-fold lower: 3.49 µM for the first, 10.4 µM for the second.

Going from `NC(=O)c1cccnc1N1CCc2ncnc(Nc3ccc(C(F)(F)F)cc3)c2CC1` [Example 294, 2-(4-{[4-(Trifluoromethyl)phenyl]amino}-5,6,8,9-tetrahydro-7H-pyrimido[4,5-d]azepin-7-yl)pyridine-3-carboxamide trifluoroacetic acid salt] to `NS(=O)(=O)c1cccnc1N1CCc2ncnc(Nc3ccc(C(F)(F)F)cc3)c2CC1` [Example 302, 2-(4-{[4-(Trifluoromethyl)phenyl]amino}-5,6,7,8,9-tetrahydro-7H-pyrimido[4,5-d]azepin-7-yl)pyridine-3-sulfonamide], the IC50 rises from 2.94 µM to 9.46 µM (3.2-fold).

Compared with `CCS(=O)(=O)c1cccnc1N1CCc2nc(C(C)C)nc(Nc3ccc(C(C)(C)C)cc3)c2CC1` [Example 296, N-[4-(1,1-Dimethylethyl)phenyl]-7-[3-(ethylsulfonyl)pyridin-2-yl]-2-(1-methylethyl)-6,7,8,9-tetrahydro-5H-pyrimido[4,5-d]azepin-4-amine], `CCS(=O)(=O)c1cccnc1N1CCc2ncnc(Nc3ccc(C(F)(F)F)cc3)c2CC1` [Example 301, 7-[3-(Ethylsulfonyl)pyridin-2-yl]-N-[4-(trifluoromethyl)phenyl]-6,7,8,9-tetrahydro-5H-pyrimido[4,5-d]azepin-4-amine] is 75-fold higher in IC50: 0.12 µM for the first, 8.97 µM for the second. The first is the more potent here.

Compared with `CCS(=O)(=O)c1cccnc1N1CCc2nc(N3CCCCC3)nc(Nc3ccc(C(F)(F)F)cc3)c2CC1` [Example 297, 7-[3-(Ethylsulfonyl)pyridin-2-yl]-2-piperidin-1-yl-N-[4-(trifluoromethyl)phenyl]-6,7,8,9-tetrahydro-5H-pyrimido[4,5-d]azepin-4-amine], `CC(C)NS(=O)(=O)c1cccnc1N1CCc2nc(N3CCCCC3)nc(Nc3ccc(C(F)(F)F)cc3)c2CC1` [Example 300, N-(1-Methylethyl)-2-(2-piperidin-1-yl-4-{[4-(trifluoromethyl)phenyl]amino}-5,6,8,9-tetrahydro-7H-pyrimido[4,5-d]azepin-7-yl)pyridine-3-sulfonamide] is 1.9-fold higher in IC50: 1.08 µM for the first, 2 µM for the second.

First: O=S(=O)(NC1CC1)c1cccnc1N1CCc2nc(N3CCCCC3)nc(Nc3ccc(C(F)(F)F)cc3)c2CC1 [Example 299, N-Cyclopropyl-2-(2-piperidin-1-yl-4-{[4-(trifluoromethyl)phenyl]amino}-5,6,8,9-tetrahydro-7H-pyrimido[4,5-d]azepin-7-yl)pyridine-3-sulfonamide]
Second: COC(=O)c1cnc(N2CCc3nc(SC)nc(Nc4ccc(C(F)(F)F)cc4)c3CC2)c(Cl)c1 [Example 303, Methyl 5-chloro-6-[2-(methylsulfanyl)-4-{[4-(trifluoromethyl)phenyl]amino}-5,6,8,9-tetrahydro-7H-pyrimido[4,5-d]azepin-7-yl]pyridine-3-carboxylate]
The IC50 of the first is lower: 3 µM for the first, greater than 6.67 µM for the second. The first is the more potent here.
